One may read the Ki as a measure of affinity in units of concentration, obtained from inhibition or displacement. Read a low Ki as a stronger hold on the target.

The target of this experiment is T1, M3 muscarinic receptor subtype (hM3) (Homo sapiens, UniProt P20309).
T1 construct: expressed in transfected cells
The experiment is described as follows: Radioligand binding assay ([3H]-NMS displacement, CHO cell membranes). Conditions: [3H]-NMS 1 nM. The method, then: CHO cell lines stably expressing cloned human hM1, hM2, hM3 and hM4 muscarinic receptor subtypes, respectively, were grown to near confluency in medium consisting of HAM's F-12 supplemented with 10% FBS and 250 μg/mL Geneticin. The cells were grown in a 5% CO2, 37° C. incubator and lifted with 2 mM EDTA in dPBS. Cells were collected by 5 minute centrifugation at 650×g, and cell pellets were either stored frozen at −80° C. or membranes were prepared immediately. For membrane preparation, cell pellets were resuspended in lysis buffer and homogenized with a Polytron PT-2100 tissue disrupter (Kinematica AG; 20 seconds×2 bursts). Crude membranes were centrifuged at 40,000×g for 15 minutes at 4° C. […] The protein concentration of the membrane suspension was determined by the method described in Lowry, O. et al., Journal of Biochemistry 193:265 (1951). […]
Radioligand binding assays were performed in 96-well microtiter plates in a total assay volume of 100 μL. […] Filter plates were rinsed three times with wash buffer (10 mM HEPES) to remove unbound radioactivity. […] The plates were then counted in a PerkinElmer Topcount liquid scintillation counter (PerkinElmer Inc., Wellesley, Mass.). Binding data were analyzed by nonlinear regression analysis with the GraphPad Prism Software package (GraphPad Software, Inc., San Diego, Calif.) using the one-site competition model. […]

T1 sequence (P20309 whole entry): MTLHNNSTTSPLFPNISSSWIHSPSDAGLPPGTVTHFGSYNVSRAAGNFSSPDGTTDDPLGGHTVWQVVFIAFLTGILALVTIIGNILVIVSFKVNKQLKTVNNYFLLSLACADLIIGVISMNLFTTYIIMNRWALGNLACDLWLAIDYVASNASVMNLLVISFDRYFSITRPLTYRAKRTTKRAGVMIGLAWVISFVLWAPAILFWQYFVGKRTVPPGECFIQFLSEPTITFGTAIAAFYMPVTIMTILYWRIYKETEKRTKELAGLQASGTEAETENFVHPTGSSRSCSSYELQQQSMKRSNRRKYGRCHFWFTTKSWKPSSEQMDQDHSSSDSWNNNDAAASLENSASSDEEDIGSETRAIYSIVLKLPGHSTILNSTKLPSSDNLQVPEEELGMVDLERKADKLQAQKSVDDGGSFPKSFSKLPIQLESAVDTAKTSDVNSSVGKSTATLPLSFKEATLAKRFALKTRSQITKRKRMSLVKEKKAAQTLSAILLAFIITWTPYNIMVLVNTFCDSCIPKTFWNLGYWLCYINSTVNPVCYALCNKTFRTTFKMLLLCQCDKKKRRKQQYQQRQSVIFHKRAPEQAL

`CN(CCN1CCC(OC(=O)Nc2ccccc2-c2ccccc2)CC1)C(=O)CCCCCN1CCC(C(N)=O)CC1` [Example 1, Biphenyl-2-ylcarbamic Acid 1-(2-{[6-(4-Carbamoylpiperidin-1-yl)hexanoyl]methylamino}ethyl)piperidin-4-yl Ester]: the Ki was under 5 nM.

Source of the values: US8067439B2, “Biphenyl compounds useful as muscarinic receptor antagonists” (Theravance, Inc., priority 2004, dated 2011).
